Measured values: patent US8716326B2, “Isoindolinone derivatives, preparation method thereof and a pharmaceutical composition comprising same” (Korea Research Institute of Chemical Technology, priority 2009, dated 2014)

Test system: Runx2
Assay: Runx2 activity, 6xOSE2-Luc luciferase reporter in transfected C2C12 cells
Format: cell-based, Mouse
Settings: Mus musculus, 24 hrs, read-out: luciferase activity relative to control set as 1
How it was run: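 Compound exposure of 24 h at 2.5, 5.0, 10 and 20 μM, in 5% FBS DMEM, was applied to transfected C2C12 cells with an OSE2 hexamer-driven luciferase construct reporting Runx2 activity. Read-out: dual-luciferase signal in cell lysates, normalised to equal-volume DMSO control (=1).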

SMILES	fold induction at 2.5 µM	fold induction at 5 µM	fold induction at 10 µM	fold induction at 20 µM
COc1cc(C(=O)NCc2ccc(C(=O)Nc3ccccc3N)cc2)c(C)c(-c2cncnc2)c1OC [Example 75, N-(2-aminophenyl)-4-((2-methyl-4,5-dimethoxy-3-(5-pyrimidinyl)-benzamido)methyl)benzamide]	2.5	4.7	12.4	27.8
COc1cc(C(=O)NCc2ccc(C(=O)Nc3ccccc3N)cc2)c(C)c(-c2cccnc2)c1OC [Example 76, N-(2-aminophenyl)-4-((2-methyl-3-(3-pyridinyl)-4,5-dimethoxy-benzamido)methyl)benzamide]	4.5	8.5	20.8	32.9
COc1cc(C(=O)NCc2ccc(C(=O)Nc3ccccc3N)cc2)c(C)c(-c2cccc(N)c2)c1OC [Example 77, N-(2-aminophenyl)-4-((3-(3-aminophenyl)-4,5-dimethoxy-2-methyl-benzamido)methyl)benzamide]	4.9	11	24.5	33.5
COc1cc(C(=O)NCc2ccc(C(=O)Nc3ccccc3N)cc2)c(C)c(-c2ccc(C(F)(F)F)cc2)c1OC [Example 78, N-(2-aminophenyl)-4-((2-methyl-3-(4-trifluoromethylphenyl)-4,5-dimethoxy-benzamido)methyl)benzamide]	6.4	12.8	19.1	21.1
COc1cc(C(=O)NCc2ccc(C(=O)Nc3ccccc3N)cc2)c(C)c(-c2cc(F)cc(F)c2)c1OC [Example 79, N-(2-aminophenyl)-4-((2-methyl-3-(3,5-difluorophenyl)-4,5-dimethoxy-benzamido)methyl)benzamide]	13.5	24.4	31.3	31.7
Cc1c(Br)cccc1C(=O)NCCCCCC(=O)Nc1ccccc1N [Example 80, N-(5-(2-aminophenylcarbamoyl)pentyl)-3-bromo-2-methylbenzamide]	0.9	1.8	2.7	5.4
Cc1c(C(=O)NCCCCCC(=O)Nc2ccccc2N)cccc1-c1ccccc1 [Example 81, N-(5-(2-aminophenylcarbamoyl)pentyl)-2-methyl-3-phenyl-benzamide]	1.6	3.4	7.5	10.7
COc1ccc(-c2cccc(C(=O)NCCCCCC(=O)Nc3ccccc3N)c2C)c(OC)c1 [Example 82, N-(5-(2-aminophenylcarbamoyl)pentyl)-2-methyl-3-(2,4-dimethoxyphenyl)-benzamide]	1.5	2.5	6	10.9
Cc1c(C(=O)NCCCCCC(=O)Nc2ccccc2N)cccc1-c1cccnc1 [Example 83, N-(5-(2-aminophenylcarbamoyl)pentyl)-2-methyl-3-(3-pyridinyl)-benzamide]	1.3	2.1	5.6	15.7
Cc1c(C(=O)NCCCCCC(=O)Nc2ccccc2N)cccc1-c1ccncc1 [Example 84, N-(5-(2-aminophenylcarbamoyl)pentyl)-2-methyl-3-(4-pyridinyl)-benzamide]	1.9	3.3	7.8	17.3
Cc1cc(C(=O)NCCCCCC(=O)Nc2ccccc2N)ccc1Br [Example 85, N-(5-(2-aminophenylcarbamoyl)pentyl)-4-bromo-3-methylbenzamide]	2.15	6.7	13.9	14.3
Cc1cc(C(=O)NCCCCCC(=O)Nc2ccccc2N)ccc1-c1ccccc1 [Example 86, N-(5-(2-aminophenylcarbamoyl)pentyl)-3-methyl-4-phenyl-benzamide]	1.2	1.9	3.4	3.7
COc1ccc(-c2ccc(C(=O)NCCCCCC(=O)Nc3ccccc3N)cc2C)c(OC)c1 [Example 87, N-(5-(2-aminophenylcarbamoyl)pentyl)-3-methyl-4-(2,4-dimethoxyphenyl)-benzamide]	1.7	2.6	5.6	8.5
Cc1cc(C(=O)NCCCCCC(=O)Nc2ccccc2N)ccc1-c1cccnc1 [Example 88, N-(5-(2-aminophenylcarbamoyl)pentyl)-3-methyl-4-(3-pyridinyl)-benzamide]	6	16.8	28.1	41.2
Cc1cc(C(=O)NCCCCCC(=O)Nc2ccccc2N)ccc1-c1ccncc1 [Example 89, N-(5-(2-aminophenylcarbamoyl)pentyl)-3-methyl-4-(4-pyridinyl)-benzamide]	9.6	17.9	23.7	25.3
Cc1cc(C(=O)NCCCCCC(=O)Nc2ccccc2N)ccc1-c1cncnc1 [Example 90, N-(5-(2-aminophenylcarbamoyl)pentyl)-3-methyl-4-(5-pyrimidinyl)-benzamide]	1.7	3.7	9.5	22.1
Cc1cc(C)cc(-c2ccc(C(=O)NCCCCCC(=O)Nc3ccccc3N)cc2C)c1 [Example 91, N-(5-(2-aminophenylcarbamoyl)pentyl)-3-methyl-4-(3,5-dimethylphenyl)-benzamide]	1.1	1.5	2.9	3.9
Cc1c(C(=O)NCCCCCC(=O)NO)cccc1-c1ccccc1 [Example 92, N-(5-(hydroxycarbamoyl)pentyl)-2-methyl-3-phenylbenzamide]	4.1	8.8	12.4	11.5
COc1ccc(-c2cccc(C(=O)NCCCCCC(=O)NO)c2C)c(OC)c1 [Example 93, N-(5-(hydroxycarbamoyl)pentyl)-2-methyl-3-(2,4-dimethoxyphenyl)-benzamide]	1.3	1.9	4.8	11.2
